Reference: ChEMBL document CHEMBL5126582, “Discovery of (2-(pyrrolidin-1-yl)thieno[3,2-d]pyrimidin-4-yl)(3,4,5-trimethoxyphenyl)methanone as a novel potent tubulin depolymerizing and vascular disrupting agent” (Eur J Med Chem, 2022)
Active and inactive are the calls of the source. The calls are words filed in the database; no cut-off is given here.

Experiments:
HL-60 = experiment: Antiproliferative activity against human HL-60 cells assessed as reduction in cell viability incubated for 48 hrs by MTS assay; assay type: functional, cell-based; conditions: HL-60, 48 h
HeLa [1] = experiment: Induction of cell cycle arrest in human HeLa cells assessed as reduction of cells at G1 phase at 100 to 2000 nM incubated for 24 to 48 hrs by […] flow cytometry; assay type: functional; conditions: dose 100-2000 nM, time 24-48 hrs
HeLa [2] = experiment: Induction of apoptosis in human HeLa cells assessed as early apoptotic cells at 500 nM incubated for 24 hrs by annexin V FITC and propidium iodide staining based flow cytometry analysis (reference value: 0.12%); assay type: functional
HeLa [3] = experiment: Induction of apoptosis in human HeLa cells assessed as early apoptotic cells at 750 nM incubated for 24 hrs by annexin V FITC and propidium iodide staining based flow cytometry analysis (reference value: 0.12%); assay type: functional
HeLa [4] = experiment: Induction of apoptosis in human HeLa cells assessed as late apoptotic cells at 750 nM incubated for 24 hrs by annexin V FITC and propidium iodide staining based flow cytometry analysis (reference value: 0.05%); assay type: functional
HeLa [5] = experiment: Induction of apoptosis in human HeLa cells assessed as viable cells at 1 uM incubated for 24 hrs by annexin V FITC and propidium iodide staining based flow cytometry analysis (reference value: 85.7%); assay type: functional; conditions: read-out: Activity
HeLa [6] = experiment: Induction of apoptosis in human HeLa cells assessed as early apoptotic cells at 1 uM incubated for 24 hrs by annexin V FITC and propidium iodide staining based flow cytometry analysis (reference value: 0.12%); assay type: functional
HeLa [7] = experiment: Induction of apoptosis in human HeLa cells assessed as viable cells at 100 nM incubated for 48 hrs by annexin V FITC and propidium iodide staining based flow cytometry analysis (reference value: 85.5%); assay type: functional; conditions: read-out: Activity
HeLa [8] = experiment: Induction of apoptosis in human HeLa cells assessed as early apoptotic cells at 100 nM incubated for 48 hrs by annexin V FITC and propidium iodide staining based flow cytometry analysis (reference value: 6.01%); assay type: functional
HeLa [9] = experiment: Induction of apoptosis in human HeLa cells assessed as early apoptotic cells at 500 nM incubated for 48 hrs by annexin V FITC and propidium iodide staining based flow cytometry analysis (reference value: 6.01%); assay type: functional
HeLa [10] = experiment: Induction of apoptosis in human HeLa cells assessed as late apoptotic cells at 500 nM incubated for 48 hrs by annexin V FITC and propidium iodide staining based flow cytometry analysis (reference value: 8.87%); assay type: functional
HeLa [11] = experiment: Induction of apoptosis in human HeLa cells assessed as necrotic cells at 750 nM incubated for 48 hrs by annexin V FITC and propidium iodide staining based flow cytometry analysis (reference value: 1.85 %); assay type: functional
HeLa [12] = experiment: Induction of apoptosis in human HeLa cells assessed as early apoptotic cells at 1 uM incubated for 48 hrs by annexin V FITC and propidium iodide staining based flow cytometry analysis (reference value: 6.01%); assay type: functional
HeLa [13] = experiment: Induction of apoptosis in human HeLa cells assessed as viable cells at 100 nM incubated for 72 hrs by annexin V FITC and propidium iodide staining based flow cytometry analysis (reference value: 90.1%); assay type: functional; conditions: read-out: Activity
HeLa [14] = experiment: Induction of apoptosis in human HeLa cells assessed as early apoptotic cells at 500 nM incubated for 72 hrs by annexin V FITC and propidium iodide staining based flow cytometry analysis (reference value: 2.36%); assay type: functional
HeLa [15] = experiment: Induction of apoptosis in human HeLa cells assessed as necrotic cells at 500 nM incubated for 72 hrs by annexin V FITC and propidium iodide staining based flow cytometry analysis (reference value: 2.88 %); assay type: functional
HeLa [16] = experiment: Induction of apoptosis in human HeLa cells assessed as late apoptotic cells at 1 uM incubated for 72 hrs by annexin V FITC and propidium iodide staining based flow cytometry analysis (reference value: 4.70%); assay type: functional
HeLa [17] = experiment: Induction of mitochondrial membrane potential alteration in human HeLa cells assessed as late apoptotic cells at 100 nM measured after 48 hrs by JC1 staining-based flow cytometry analysis (reference value: 0.009%); assay type: functional
HeLa [18] = experiment: Induction of mitochondrial membrane potential alteration in human HeLa cells assessed as early apoptotic cells at 250 nM measured after 48 hrs by JC1 staining-based flow cytometry analysis (reference value: 9.07 %); assay type: functional
HeLa [19] = experiment: Induction of mitochondrial membrane potential alteration in human HeLa cells assessed as necrotic cells at 750 nM measured after 48 hrs by JC1 staining-based flow cytometry analysis (reference value: 0%); assay type: functional
A549 = experiment: cells; conditions: Homo sapiens, A549, 48 h
Description: Antiproliferative activity against human A549 cells assessed as reduction in cell viability incubated for 48 hrs by MTS assay

COc1cc(C(=O)c2nc(N3CCCC3)nc3ccsc23)cc(OC)c1OC
IC50 (HL-60): 8 nM
Activity (HeLa [1]): Active
Activity (HeLa [2]): 6.1%
Activity (HeLa [3]): 8.59%
Activity (HeLa [4]): 7.06%
viability at 1 µM (HeLa [5]): 80.1%
Activity (HeLa [6]): 7.23%
viability at 0.1 µM (HeLa [7]): 60.7%
Activity (HeLa [8]): 2.8%
Activity (HeLa [9]): 4.64%
Activity (HeLa [10]): 10.8%
Activity (HeLa [11]): 22.5%
Activity (HeLa [12]): 2.09%
viability at 0.1 µM (HeLa [13]): 85.1%
Activity (HeLa [14]): 0.734%
Activity (HeLa [15]): 52.2%
Activity (HeLa [16]): 24.7%
Activity (HeLa [17]): 0.02%
Activity (HeLa [18]): 9.45%
Activity (HeLa [19]): 0.019%
IC50 (A549): 14 nM
